Several values for one entry are separate records, joined by “and”; a condition that tells them apart may be missing. Equal values may be shown once. Inconclusive results are not listed. Activity calls are given as the source filed them. The rule behind the calls is not given here.
Test system: C. albicans growth with fluconazole, fluorescence
Assay: C. albicans growth with fluconazole, confirmation, fluorescence, retest (AID 2467)

| Compound | EC50 |
| --- | --- |
| c1cnc2c(c1)ccc1cccnc12 | > 3800 nM (inactive) |
| NC(=NCCCCCCN=C(N)/N=C(\N)Nc1ccc(Cl)cc1)/N=C(\N)Nc1ccc(Cl)cc1 | 635 nM and 308 nM and 649 nM |

— PubChem BioAssay AID2467 (Broad Institute, 2010)
